From patent publication US12208108B2, “Drug targets of delayed aging and human brain diseases” (Texas Tech University System, priority 2016, dated 2025)

Key:
SHSY5Y cells [1] = assay: Lipid peroxidation assay (HNE); format: cell-based, Human
Procedure: Lipid peroxidation assay. Lipid peroxidates are unstable indicators of oxidative stress in neurons. 4-hydroxy-2-nonenol (HNE) is the final product of lipid peroxidation that was measured in the cell lysates from SHSY5Y cells of control and experimental treatments (n=4), using an HNE-His ELISA Kit (Cell BioLabs, Inc., San Diego, Calif.) as described in Manczak et al..

[2] = system: mutant APPSwe/Ind mouse neuroblastoma (N2a) cells; assay: Co-immunoprecipitation and immunoblotting of mutant APPSwe/Ind cells; format: cell-based; conditions: DDQ 250 nM 24 hrs vs mutant APPSwe/Ind cells untreated with DDQ
Procedure: Co-immunoprecipitation and immunoblotting analysis of mutant APPSwe/Ind cells treated with DDQ. To determine whether DDQ reduces the interaction of Aβ with Drp1 in mutant APPSwe/Ind cells, the inventors used mutant APPSwe/Ind cDNA construct transfected into mouse neuroblastoma (N2a) cells and further cells were treated with DDQ. The inventors performed immunoprecipitation with Aβ (6E10) antibody and immunoblotting analysis with 6E10 and the inventors also performed co-immunoprecipitation analysis with Aβ (6E10) antibody and immunoblotting analysis with Drp1 antibody. […] These findings further confirm that DDQ reduces full-length APP and 4 kDa Aβ and reduces interaction between Drp1 and Aβ.
Mutant APPSwe/Ind cells: The inventors purchased mutant APPSwe cDNA clone (pCAX-APPSwe/Ind) from Addgene—https://www.addgene.org and verified expression of mutant APP APPSwe/Ind cDNA and further sub-cloned into a mammalian expression vector (Arubala P. Reddy—unpublished observations). The inventors transfected mutant APPSwe/Ind cDNA into mouse neuroblastoma (N2a) cells for 24 hrs and after transfection, cells were treated with DDQ (250 nM) for 24 hrs. The inventors harvested mutant APPSwe/Ind cells treated and untreated with DDQ and prepared protein lysates and performed co-immunoprecipitation using Aβ (6E10) antibody and conducted immunoblotting analysis with 6E10 and Drp1 antibodies.
(§1) The inventors performed co-immunoprecipitation (co-IP) assays using the Dynabeads Kit for Immunoprecipitation (Invitrogen). Briefly, 50 μL of Dynabeads containing protein G was incubated with 10 μg 6E10 or 10 μg of the Drp1 antibodies (both mono- and polyclonal antibodies; Santa Cruz), with rotation, for 1 h at room temperature. The inventors used all the reagents and buffers provided in the kit. Details of antibodies used for co-IP and western blotting are given Table 5. The Dynabeads-Aβ complex was washed three times with a washing buffer and was then incubated overnight with 400 μg of protein at 4° C., with rotation. […]

[3] = biological target: T1, interaction of Aβ with Drp1 (Homo sapiens, UniProt O00429); assay: Co-immunoprecipitation of Aβ and Drp1 in SHSY5Y cells; format: cell-based
T1 construct: SHSY5Y cells incubated with Aβ peptide 1-42 (20 uM final concentration); Anaspec (Aβ 1-42 peptide); host or cells: SHSY5Y human neuroblastoma cells
T1 sequence (O00429 whole entry): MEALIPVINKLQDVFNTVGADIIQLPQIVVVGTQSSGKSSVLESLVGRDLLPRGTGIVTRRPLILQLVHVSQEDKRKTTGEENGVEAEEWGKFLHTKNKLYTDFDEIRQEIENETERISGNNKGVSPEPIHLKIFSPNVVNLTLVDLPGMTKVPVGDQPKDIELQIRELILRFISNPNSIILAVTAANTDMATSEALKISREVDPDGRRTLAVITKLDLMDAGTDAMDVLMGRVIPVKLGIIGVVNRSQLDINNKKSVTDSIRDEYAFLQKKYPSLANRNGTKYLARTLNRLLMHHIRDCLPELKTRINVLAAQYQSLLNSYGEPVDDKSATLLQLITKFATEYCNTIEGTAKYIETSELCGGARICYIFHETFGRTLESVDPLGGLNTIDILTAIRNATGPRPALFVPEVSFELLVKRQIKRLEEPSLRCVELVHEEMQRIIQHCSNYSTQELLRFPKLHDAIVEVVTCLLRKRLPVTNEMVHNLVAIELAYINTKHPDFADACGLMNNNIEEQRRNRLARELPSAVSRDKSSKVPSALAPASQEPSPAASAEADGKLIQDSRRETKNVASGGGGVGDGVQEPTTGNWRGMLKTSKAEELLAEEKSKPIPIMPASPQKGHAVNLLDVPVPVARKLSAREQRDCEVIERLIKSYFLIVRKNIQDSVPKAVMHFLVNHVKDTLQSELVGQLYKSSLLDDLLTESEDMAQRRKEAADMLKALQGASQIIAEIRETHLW
Procedure: Co-immunoprecipitation and immunoblotting analysis using DDQ treated SHSY5Y cells+Aβ. To determine whether DDQ reduces the interaction of Aβ with Drp1 in Aβ incubated cells, the inventors performed co-immunoprecipitation analysis using the Drp1 antibody, and immunoblotting analysis using Aβ recognizing 6E10 antibody and protein lysates of DDQ pre-treated, DDQ post-treated and Aβ incubated cells.
SHSY5Y cells, mutant APPSwe/Ind cells and co-immunoprecipitation analysis. SHSY5Y cells: To determine whether Aβ interact with Drp1, the inventors used protein lysates from Aβ incubated (DDQ pre-treated, post-treated and untreated) SHSY5Y cells.
as §1

SHSY5Y cells [4] = assay: Immunoblotting analysis of mitochondrial, synaptic proteins and Aβ; format: cell-based, Human
From the text: Immunoblotting analysis. To determine the effects of Aβ on mitochondrial proteins and the useful effects of DDQ at the protein level, the inventors quantified mitochondrial proteins in five independent treatments of cells with Aβ, DDQ, Aβ+DDQ and DDQ+Aβ.
DDQ reduces Aβ and Drp1 levels. To determine whether DDQ reduces Aβ and Drp1 levels, the inventors conducted immunoblotting analysis, in cells treated with DDQ, Aβ+DDQ and DDQ+Aβ.
FIG. 3 illustrates the experimental strategy of the cell culture work and including treatments. The cells were grown in a medium (1:1 DMEM and F12, 10% FBS, lx penicillin, and streptomycin) at 37° C. in a humified incubator with a 5% CO2 environment. After seeding were allowed to grow for 24-48 hrs or until 80% confluence in six-well plates and used for experiments. The inventors used five different groups of cells—(1) untreated SHSY5Y cells; (2) SHSY5Y cells treated with DDQ (250 nM final concentration) for 24 hrs; (3) SHSY5Y cells incubated with Aβ peptide 1-42 (20 uM final concentration) for 6 hrs; (4) SHSY5Y cells treated Aβ for 6 hrs+DDQ for 24 hrs and (5) SHSY5Y cells treated DDQ for 24 hrs and Aβ for 6 hrs. Half a million SHSY5Y cells were suspended per well into six-well plates. The inventors used Aβ peptide 1-42 and DDQ 250 nM in the experiments. After treatments, the inventors harvested cells, conducted experiments to measure the levels mRNA using Sybr-Green based real-time RT-PCR, proteins using immunoblotting and immunofluorescence analysis and cell viability using MTT assay. The inventors counted the number of mitochondria by electron microscopy.

[5] = DDQ 250 nM 24 hrs vs untreated cells
[6] = Aβ + DDQ (Aβ1-42 20 μM 6 hrs, then DDQ 24 hrs) vs untreated cells
[7] = Aβ + DDQ (Aβ1-42 6 hrs, then DDQ 24 hrs) vs Aβ treated cells
[8] = DDQ + Aβ (DDQ 24 hrs, then Aβ1-42 6 hrs) vs Aβ treated cells

CCOP(=O)(OCC)C(NCCc1ccc(O)c(O)c1)c1ccnc2ccccc12 (stereo not shown) [DDQ, diethyl(3,4-dihydroxyphenethylamine)(quinolin-4-yl)methylphosphonate]
lipid peroxidation (4-hydroxy-nonenol) levels (SHSY5Y cells [1]; Aβ + DDQ (Aβ1-42 6 hrs, then DDQ 24 hrs) vs cells incubated with Aβ alone): significantly reduced levels
lipid peroxidation (4-hydroxy-nonenol) levels (SHSY5Y cells [1]; [5]): significantly decreased levels
lipid peroxidation (4-hydroxy-nonenol) levels (SHSY5Y cells [1]; DDQ + Aβ (DDQ 24 hrs, then Aβ1-42 6 hrs) vs cells incubated with Aβ alone): significantly reduced levels
4 kDa Aβ levels (IP 6E10, WB 6E10) [2]: reduced levels
Drp1 levels (co-IP 6E10, WB Drp1) [2]: reduced levels
full-length APP levels (IP 6E10, WB 6E10) [2]: reduced levels
interaction between Aβ and Drp1 ([3]; DDQ post-treated (Aβ + DDQ) vs Aβ incubated cells): reduced interaction
interaction between Aβ and Drp1 ([3]; DDQ pre-treated (DDQ + Aβ) vs Aβ incubated cells): reduced interaction
Drp1 protein level (SHSY5Y cells [4]; [6]): reduced
Fis1 protein level (SHSY5Y cells [4]; [6]): reduced
Mfn1 protein level (SHSY5Y cells [4]; [6]): significantly increased
PSD95 protein level (SHSY5Y cells [4]; [6]): significantly increased
synaptophysin protein level (SHSY5Y cells [4]; [6]): significantly increased
Drp1 protein level (SHSY5Y cells [4]; [7]): significantly reduced levels
Mfn1 protein level (SHSY5Y cells [4]; [7]): increased
Mfn2 protein level (SHSY5Y cells [4]; [7]): increased
Nrf1 protein level (SHSY5Y cells [4]; [7]): increased
Nrf2 protein level (SHSY5Y cells [4]; [7]): increased
PSD95 protein level (SHSY5Y cells [4]; [7]): increased
TFAM protein level (SHSY5Y cells [4]; [7]): increased
synaptophysin protein level (SHSY5Y cells [4]; [7]): increased
4 kDa Aβ levels (SHSY5Y cells [4]; Aβ + DDQ (Aβ1-42 6 hrs, then DDQ 24 hrs) vs cells treated with Aβ alone): reduced levels
Drp1 protein level (SHSY5Y cells [4]; [5]): significantly reduced
Fis1 protein level (SHSY5Y cells [4]; [5]): significantly reduced
Mfn2 protein level (SHSY5Y cells [4]; [5]): significantly increased
Mitochondrial biogenesis protein levels (SHSY5Y cells [4]; [5]): significantly increased
Drp1 protein level (SHSY5Y cells [4]; [8]): significantly reduced levels
Fis1 protein level (SHSY5Y cells [4]; [8]): significantly reduced levels
Mfn1 protein level (SHSY5Y cells [4]; [8]): increased
Mfn2 protein level (SHSY5Y cells [4]; [8]): increased
Nrf1 protein level (SHSY5Y cells [4]; [8]): significantly increased levels
Nrf2 protein level (SHSY5Y cells [4]; [8]): significantly increased levels
PSD95 protein level (SHSY5Y cells [4]; [8]): increased
TFAM protein level (SHSY5Y cells [4]; [8]): significantly increased levels
synaptophysin protein level (SHSY5Y cells [4]; [8]): increased
4 kDa Aβ levels (SHSY5Y cells [4]; DDQ + Aβ (DDQ 24 hrs, then Aβ1-42 6 hrs) vs cells treated with Aβ alone): reduced levels
Drp1 protein level (SHSY5Y cells [4]; DDQ + Aβ (DDQ 24 hrs, then Aβ1-42 6 hrs) vs untreated cells): Decreased levels
